What all share (type): functional
The test system of one experiment is Candida albicans. As to the kind of experiment: Antifungal activity against Candida albicans after 48 hrs by serial plate dilution method.
For a further experiment, the system named is Aspergillus niger. In words: Antifungal activity against Aspergillus niger after 48 hrs by serial plate dilution method.
A further experiment relates to Bacillus subtilis. As to the kind of experiment: Antibacterial activity against Bacillus subtilis after 24 hrs by broth dilution technique.
The next experiment has as its system Trichophyton rubrum. In words: Antifungal activity against Trichophyton rubrum after 48 hrs by serial plate dilution method.
The subject of another experiment is Staphylococcus aureus. In words: Antibacterial activity against Staphylococcus aureus after 24 hrs by broth dilution technique. (In general: Broth dilution looks for growth in wells or tubes with falling amounts of substance.)
The test system of the next experiment is Pseudomonas fluorescens. In words: Antibacterial activity against Pseudomonas fluorescens after 24 hrs by broth dilution technique.

In brackets after ≈: the same amount, converted by molar mass.

As for `Oc1ccccc1/N=C/c1c[nH]c2ccccc12`, the MIC was 28.4 mg/L (≈ 120 µM) in the experiment on Candida albicans; above 50 mg/L against Aspergillus niger; 18.4 mg/L (≈ 77.9 µM) against Bacillus subtilis; above 50 mg/L with Trichophyton rubrum; 35.9 mg/L (≈ 152 µM) against Staphylococcus aureus; 15.8 mg/L (≈ 66.9 µM) against Pseudomonas fluorescens.

Regarding `O=C(O)C(Cc1c[nH]cn1)/N=C/c1c[nH]c2ccccc12` (configuration not stated), the MIC against Candida albicans is above 50 mg/L; against Aspergillus niger it was 47.5 mg/L (≈ 168 µM); against Bacillus subtilis it was 35.1 mg/L (≈ 124 µM); against Trichophyton rubrum it was above 50 mg/L; with Staphylococcus aureus, 3.4 mg/L (≈ 12 µM); with Pseudomonas fluorescens, 3.8 mg/L (≈ 13.5 µM).

`O=C(O)CCC(/N=C/c1c[nH]c2ccccc12)C(=O)O` (configuration not stated): the MIC in the experiment with Candida albicans is 12.5 mg/L (≈ 45.6 µM); against Aspergillus niger, above 50 mg/L; in the experiment with Bacillus subtilis, 48.2 mg/L (≈ 176 µM); against Trichophyton rubrum, above 50 mg/L; in the experiment with Staphylococcus aureus, 19.2 mg/L (≈ 70 µM); in the experiment on Pseudomonas fluorescens, 5.7 mg/L (≈ 20.8 µM).

For `O=S(=O)(O)c1cc(O)c(/N=C/c2c[nH]c3ccccc23)c2ccccc12`, the MIC is 15.2 mg/L (≈ 41.5 µM) in the experiment with Candida albicans; 21.3 mg/L (≈ 58.1 µM) with Aspergillus niger; 15.5 mg/L (≈ 42.3 µM) against Bacillus subtilis; 21.9 mg/L (≈ 59.8 µM) against Trichophyton rubrum; above 50 mg/L in the experiment with Staphylococcus aureus; 21.6 mg/L (≈ 59 µM) in the experiment on Pseudomonas fluorescens.

On to `CC(C)CC(/N=C/c1c[nH]c2ccccc12)C(=O)O` (configuration not stated), for which the MIC against Candida albicans was 19.9 mg/L (≈ 77 µM); in the experiment on Aspergillus niger, above 50 mg/L; against Bacillus subtilis it was 12.1 mg/L (≈ 46.8 µM); with Trichophyton rubrum, above 50 mg/L; against Staphylococcus aureus, 35.3 mg/L (≈ 137 µM); against Pseudomonas fluorescens, above 50 mg/L.

In the case of `CC(C)C(/N=C/c1c[nH]c2ccccc12)C(=O)O` (configuration not stated), the MIC against Candida albicans is 26.8 mg/L (≈ 110 µM); in the experiment on Aspergillus niger, above 50 mg/L; with Bacillus subtilis, 42.5 mg/L (≈ 174 µM); in the experiment on Trichophyton rubrum it was above 50 mg/L; in the experiment on Staphylococcus aureus it was 16.8 mg/L (≈ 68.8 µM); in the experiment with Pseudomonas fluorescens, 38.1 mg/L (≈ 156 µM).

On to `O=C(O)CC(/N=C/c1c[nH]c2ccccc12)C(=O)O` (configuration not stated), for which the MIC was 11.9 mg/L (≈ 45.7 µM) in the experiment on Candida albicans; 17.8 mg/L (≈ 68.4 µM) with Aspergillus niger; 11.3 mg/L (≈ 43.4 µM) against Bacillus subtilis; 16.2 mg/L (≈ 62.2 µM) against Trichophyton rubrum; 18.5 mg/L (≈ 71.1 µM) in the experiment with Staphylococcus aureus; 19.3 mg/L (≈ 74.2 µM) with Pseudomonas fluorescens.

As usually defined, the MIC is the smallest concentration in the dilution series that meets the test's criterion for growth inhibition. A high value points to weaker potency.

The values above are taken from ChEMBL document CHEMBL1149775, “Synthesis, characterization and biological activity of Schiff base analogues of indole-3-carboxaldehyde” (2008).
